Measurements reported in PubChem BioAssay (NCI).
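Interpolation was linear, between the two tested concentrations surrounding the appropriate level; five concentrations were tested over 48 hours in 96-well plates. GI50 is the concentration that inhibits growth by half. TGI denotes the concentration required for complete inhibition of growth.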

Experiments:
Assay in all cases: DTP human tumour cell line panel, 48 h
786-0 renal = test system: 786-0 renal
A498 renal = test system: A498 renal
A549 NSCLC = test system: A549 NSCLC
ACHN renal = test system: ACHN renal
BT-549 breast = test system: BT-549 breast
CAKI-1 renal = test system: CAKI-1 renal
CCRF-CEM leukemia = test system: CCRF-CEM leukemia
COLO 205 colon = test system: COLO 205 colon
DU-145 prostate = test system: DU-145 prostate
EKVX NSCLC = test system: EKVX NSCLC
HCC-2998 colon = test system: HCC-2998 colon
HCT-116 colon = test system: HCT-116 colon
HCT-15 colon = test system: HCT-15 colon
HL-60(TB) leukemia = test system: HL-60(TB) leukemia
HOP-62 NSCLC = test system: HOP-62 NSCLC
HOP-92 NSCLC = test system: HOP-92 NSCLC
HS 578T breast = test system: HS 578T breast
HT29 colon = test system: HT29 colon
IGROV1 ovarian = test system: IGROV1 ovarian
K-562 leukemia = test system: K-562 leukemia
KM12 colon = test system: KM12 colon
LOX IMVI melanoma = test system: LOX IMVI melanoma
M14 melanoma = test system: M14 melanoma
MALME-3M melanoma = test system: MALME-3M melanoma
MCF7 breast = test system: MCF7 breast
MDA-MB-231 breast = test system: MDA-MB-231 breast
MDA-MB-435 = test system: MDA-MB-435
MOLT-4 leukemia = test system: MOLT-4 leukemia
NCI-H226 lung = test system: NCI-H226 lung
NCI-H23 lung = test system: NCI-H23 lung
NCI-H460 lung = test system: NCI-H460 lung
NCI-H522 lung = test system: NCI-H522 lung
NCI/ADR-RES ovarian = test system: NCI/ADR-RES ovarian
OVCAR-3 ovarian = test system: OVCAR-3 ovarian
OVCAR-4 ovarian = test system: OVCAR-4 ovarian
OVCAR-5 ovarian = test system: OVCAR-5 ovarian
OVCAR-8 ovarian = test system: OVCAR-8 ovarian
PC-3 prostate = test system: PC-3 prostate
RPMI-8226 leukemia = test system: RPMI-8226 leukemia
RXF 393 renal = test system: RXF 393 renal
SF-268 CNS = test system: SF-268 CNS
SF-295 CNS = test system: SF-295 CNS
SF-539 CNS = test system: SF-539 CNS
SK-MEL-2 melanoma = test system: SK-MEL-2 melanoma
SK-MEL-28 melanoma = test system: SK-MEL-28 melanoma
SK-MEL-5 melanoma = test system: SK-MEL-5 melanoma
SK-OV-3 ovarian = test system: SK-OV-3 ovarian
SN12C renal = test system: SN12C renal
SNB-19 CNS = test system: SNB-19 CNS
SNB-75 CNS = test system: SNB-75 CNS
SR leukemia = test system: SR leukemia
SW-620 colon = test system: SW-620 colon
T-47D breast = test system: T-47D breast
TK-10 renal = test system: TK-10 renal
U251 CNS = test system: U251 CNS
UACC-257 melanoma = test system: UACC-257 melanoma
UACC-62 melanoma = test system: UACC-62 melanoma
UO-31 renal = test system: UO-31 renal

Q: CNC(=O)c1cc(Oc2ccc3nc(NC(=O)c4cc(C(F)(F)F)cc(C(F)(F)F)c4)sc3c2)ccn1 was tested. Which GI50 (786-0 renal) did it give?
A: 2.55 µM

Q: And the TGI (786-0 renal)?
A: 8.07 µM

Q: What about the GI50 (A498 renal) of the same compound?
A: 1.45 µM

Q: What about the TGI (A498 renal) of the same compound?
A: 4.51 µM

Q: And the GI50 (A549 NSCLC)?
A: 3.99 µM

Q: And the TGI (A549 NSCLC)?
A: 14.6 µM

Q: And the GI50 (ACHN renal)?
A: 3.26 µM

Q: And the TGI (ACHN renal)?
A: 11.8 µM

Q: And the GI50 (BT-549 breast)?
A: 3.05 µM

Q: What about the TGI (BT-549 breast) of the same compound?
A: 12.4 µM

Q: And the GI50 (CAKI-1 renal)?
A: 2.75 µM

Q: And the TGI (CAKI-1 renal)?
A: 10.7 µM

Q: What about the GI50 (CCRF-CEM leukemia) of the same compound?
A: 3.47 µM

Q: What about the TGI (CCRF-CEM leukemia) of the same compound?
A: > 100 µM

Q: And the GI50 (COLO 205 colon)?
A: 2.82 µM

Q: And the TGI (COLO 205 colon)?
A: 8.21 µM

Q: What about the GI50 (DU-145 prostate) of the same compound?
A: 3.69 µM

Q: And the TGI (DU-145 prostate)?
A: 15.9 µM

Q: What about the GI50 (EKVX NSCLC) of the same compound?
A: 3.43 µM

Q: What about the TGI (EKVX NSCLC) of the same compound?
A: 23.3 µM

Q: What about the GI50 (HCC-2998 colon) of the same compound?
A: 6.63 µM

Q: And the TGI (HCC-2998 colon)?
A: 24.7 µM

Q: What about the GI50 (HCT-116 colon) of the same compound?
A: 3.41 µM

Q: And the TGI (HCT-116 colon)?
A: 11.9 µM

Q: And the GI50 (HCT-15 colon)?
A: 3.97 µM

Q: What about the TGI (HCT-15 colon) of the same compound?
A: 25.1 µM

Q: And the GI50 (HL-60(TB) leukemia)?
A: 2.49 µM

Q: And the TGI (HL-60(TB) leukemia)?
A: 5.11 µM

Q: And the GI50 (HOP-62 NSCLC)?
A: 3.36 µM

Q: What about the TGI (HOP-62 NSCLC) of the same compound?
A: 10.8 µM

Q: And the GI50 (HOP-92 NSCLC)?
A: 1.68 µM

Q: And the TGI (HOP-92 NSCLC)?
A: 7.21 µM

Q: And the GI50 (HS 578T breast)?
A: 3.15 µM

Q: What about the TGI (HS 578T breast) of the same compound?
A: 13.3 µM

Q: What about the GI50 (HT29 colon) of the same compound?
A: 3.85 µM

Q: And the TGI (HT29 colon)?
A: 16.8 µM

Q: What about the GI50 (IGROV1 ovarian) of the same compound?
A: 4.26 µM

Q: What about the TGI (IGROV1 ovarian) of the same compound?
A: 27 µM

Q: And the GI50 (K-562 leukemia)?
A: 3.53 µM

Q: What about the TGI (K-562 leukemia) of the same compound?
A: > 100 µM

Q: And the GI50 (KM12 colon)?
A: 2.7 µM

Q: What about the TGI (KM12 colon) of the same compound?
A: 11 µM

Q: What about the GI50 (LOX IMVI melanoma) of the same compound?
A: 3.39 µM

Q: And the TGI (LOX IMVI melanoma)?
A: 15.1 µM

Q: And the GI50 (M14 melanoma)?
A: 3.61 µM

Q: What about the TGI (M14 melanoma) of the same compound?
A: 19.4 µM

Q: And the GI50 (MALME-3M melanoma)?
A: 2.03 µM

Q: And the TGI (MALME-3M melanoma)?
A: 6.65 µM

Q: And the GI50 (MCF7 breast)?
A: 3.37 µM

Q: What about the TGI (MCF7 breast) of the same compound?
A: 18 µM

Q: And the GI50 (MDA-MB-231 breast)?
A: 2.88 µM

Q: And the TGI (MDA-MB-231 breast)?
A: 6.63 µM

Q: And the GI50 (MDA-MB-435)?
A: 3.28 µM

Q: What about the TGI (MDA-MB-435) of the same compound?
A: 20.4 µM

Q: And the GI50 (MOLT-4 leukemia)?
A: 2.62 µM

Q: What about the TGI (MOLT-4 leukemia) of the same compound?
A: 12.4 µM

Q: And the GI50 (NCI-H226 lung)?
A: 4.15 µM

Q: What about the TGI (NCI-H226 lung) of the same compound?
A: 17.4 µM

Q: And the GI50 (NCI-H23 lung)?
A: 3.37 µM

Q: What about the TGI (NCI-H23 lung) of the same compound?
A: 17.7 µM

Q: And the GI50 (NCI-H460 lung)?
A: 3.83 µM

Q: What about the TGI (NCI-H460 lung) of the same compound?
A: 14.6 µM

Q: What about the GI50 (NCI-H522 lung) of the same compound?
A: 2.82 µM

Q: What about the TGI (NCI-H522 lung) of the same compound?
A: 8.77 µM

Q: And the GI50 (NCI/ADR-RES ovarian)?
A: 3.67 µM

Q: What about the TGI (NCI/ADR-RES ovarian) of the same compound?
A: 19.1 µM

Q: And the GI50 (OVCAR-3 ovarian)?
A: 2.32 µM

Q: And the TGI (OVCAR-3 ovarian)?
A: 6.64 µM

Q: What about the GI50 (OVCAR-4 ovarian) of the same compound?
A: 3.12 µM

Q: What about the TGI (OVCAR-4 ovarian) of the same compound?
A: 27.2 µM

Q: What about the GI50 (OVCAR-5 ovarian) of the same compound?
A: 4.23 µM

Q: And the TGI (OVCAR-5 ovarian)?
A: 25 µM

Q: And the GI50 (OVCAR-8 ovarian)?
A: 3.06 µM

Q: And the TGI (OVCAR-8 ovarian)?
A: 13 µM

Q: And the GI50 (PC-3 prostate)?
A: 2.53 µM

Q: What about the TGI (PC-3 prostate) of the same compound?
A: 12.8 µM

Q: And the GI50 (RPMI-8226 leukemia)?
A: 2.42 µM

Q: And the TGI (RPMI-8226 leukemia)?
A: > 100 µM

Q: And the GI50 (RXF 393 renal)?
A: 2.79 µM

Q: What about the TGI (RXF 393 renal) of the same compound?
A: 8.37 µM

Q: And the GI50 (SF-268 CNS)?
A: 2.66 µM

Q: What about the TGI (SF-268 CNS) of the same compound?
A: 17 µM

Q: And the GI50 (SF-295 CNS)?
A: 2.56 µM

Q: What about the TGI (SF-295 CNS) of the same compound?
A: 10.5 µM

Q: And the GI50 (SF-539 CNS)?
A: 3.14 µM

Q: What about the TGI (SF-539 CNS) of the same compound?
A: 14.8 µM

Q: And the GI50 (SK-MEL-2 melanoma)?
A: 2.32 µM

Q: What about the TGI (SK-MEL-2 melanoma) of the same compound?
A: 6.7 µM

Q: And the GI50 (SK-MEL-28 melanoma)?
A: 3.76 µM

Q: And the TGI (SK-MEL-28 melanoma)?
A: 43.7 µM

Q: And the GI50 (SK-MEL-5 melanoma)?
A: 1.68 µM

Q: What about the TGI (SK-MEL-5 melanoma) of the same compound?
A: 3.63 µM

Q: What about the GI50 (SK-OV-3 ovarian) of the same compound?
A: 2.52 µM

Q: What about the TGI (SK-OV-3 ovarian) of the same compound?
A: 7.98 µM

Q: And the GI50 (SN12C renal)?
A: 3.22 µM

Q: What about the TGI (SN12C renal) of the same compound?
A: 12.5 µM

Q: And the GI50 (SNB-19 CNS)?
A: 3.76 µM

Q: What about the TGI (SNB-19 CNS) of the same compound?
A: 22.8 µM

Q: And the GI50 (SNB-75 CNS)?
A: 3.13 µM

Q: And the TGI (SNB-75 CNS)?
A: 14.8 µM

Q: And the GI50 (SR leukemia)?
A: 3.37 µM

Q: And the TGI (SR leukemia)?
A: 15 µM

Q: And the GI50 (SW-620 colon)?
A: 7.56 µM

Q: What about the TGI (SW-620 colon) of the same compound?
A: 63.8 µM

Q: What about the GI50 (T-47D breast) of the same compound?
A: 3.04 µM

Q: And the TGI (T-47D breast)?
A: 9.17 µM

Q: And the GI50 (TK-10 renal)?
A: 3.37 µM

Q: And the TGI (TK-10 renal)?
A: 13.3 µM

Q: What about the GI50 (U251 CNS) of the same compound?
A: 3.65 µM

Q: And the TGI (U251 CNS)?
A: 13.7 µM

Q: And the GI50 (UACC-257 melanoma)?
A: 2.89 µM

Q: What about the TGI (UACC-257 melanoma) of the same compound?
A: 8.12 µM

Q: And the GI50 (UACC-62 melanoma)?
A: 2.71 µM

Q: What about the TGI (UACC-62 melanoma) of the same compound?
A: 12.1 µM

Q: What about the GI50 (UO-31 renal) of the same compound?
A: 2.19 µM

Q: What about the TGI (UO-31 renal) of the same compound?
A: 8.95 µM
